Experimental findings from the supplement of paper PMC10307832 are described below.

Test in all cases: relative viability (nuclei count vs DMSO), 5 days (fraction); higher = more cells survive
Compound in assay [1]: C[As](C)SC[C@H](NC(=O)CC[C@H](N)C(=O)O)C(=O)NCC(=O)O [Darinaparsin] + CCNC(=O)c1noc(-c2cc(C(C)C)c(O)cc2O)c1-c1ccc(CN2CCOCC2)cc1 [Luminespib] (partner 0.01 µM)
In a few lines: (§1)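 A single step with final 0.05% Triton X-100, 1% formaldehyde and 1 ug/ml Hoechst fixed the cells and stained nuclei 5 days after treatment. Lung cancer cell lines in 1536-well plates had been treated by pin tool the day after seeding with one drug alone or a fixed anchor-drug dose plus five library-drug doses (not always all listed) in √10 steps, and nuclei were counted on 4× images. Relative viability is the ratio of nuclei in treated wells to nuclei in vehicle wells, taken as the median of duplicate plates.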

Compound in the assay “AZ628 + Lapatinib”: CC1=C(C=C(C=C1)NC(=O)C2=CC(=CC=C2)C(C)(C)C#N)NC3=CC4=C(C=C3)N=CN(C4=O)C [AZ628] + CS(=O)(=O)CCNCc1ccc(-c2ccc3ncnc(Nc4ccc(OCc5cccc(F)c5)c(Cl)c4)c3c2)o1 [Lapatinib] (partner 2 µM)
In a few lines: as §1

Compound in the assay “AZ628 + Trametinib”: CC1=C(C=C(C=C1)NC(=O)C2=CC(=CC=C2)C(C)(C)C#N)NC3=CC4=C(C=C3)N=CN(C4=O)C [AZ628] + CC(=O)Nc1cccc(-n2c(=O)n(C3CC3)c(=O)c3c(Nc4ccc(I)cc4F)n(C)c(=O)c(C)c32)c1 [Trametinib] (partner 0.02 µM)
The gist of the method:
as §1

Compound in the assay “QS11 + Pictilisib”: C1CC2=C(C1)C=C(C=C2)OC3=NC(=C4C(=N3)N(C=N4)CC5=CC=C(C=C5)C6=CC=CC=C6)N[C@@H](CC7=CC=CC=C7)CO [QS11] + CS(=O)(=O)N1CCN(Cc2cc3nc(-c4cccc5[nH]ncc45)nc(N4CCOCC4)c3s2)CC1 [Pictilisib] (partner 1 µM)
The gist of the method:
as §1

As for LCLC-97TM1, the relative viability in assay [1] (first compound 0.08 µM) was 0.939; in assay [1] (first compound 0.8 µM) it was 0.659; in assay [1] (first compound 2.53 µM), 0.699; in assay [1] (first compound 8 µM), 0.888; with AZ628 + Lapatinib (first compound 0.08 µM), 1.01; in the assay with AZ628 + Lapatinib (first compound 0.253 µM), 1.01. Besides, the relative viability with AZ628 + Lapatinib (first compound 0.8 µM) was 1.37; with AZ628 + Lapatinib (first compound 2.53 µM) it was 1.2; with AZ628 + Lapatinib (first compound 8 µM), 0.152; in the assay with AZ628 + Trametinib (first compound 0.08 µM), 0.126; with AZ628 + Trametinib (first compound 0.253 µM), 0.118; in the assay with AZ628 + Trametinib (first compound 0.8 µM), 0.114. In addition, the relative viability with AZ628 + Trametinib (first compound 2.53 µM) worked out at 0.0994; in the assay with AZ628 + Trametinib (first compound 8 µM), 0.116; in the assay with QS11 + Pictilisib (first compound 0.08 µM), 0.14; with QS11 + Pictilisib (first compound 0.253 µM), 0.193; with QS11 + Pictilisib (first compound 0.8 µM) it was 0.209; with QS11 + Pictilisib (first compound 2.53 µM), 0.302. Further, in the assay with QS11 + Pictilisib (first compound 8 µM), the relative viability amounted to 0.289.
